Data taken from US11142524B2, “Substituted-3H-imidazo[4,5-c]pyridine and 1H-pyrrolo[2,3-c]pyridine series of novel Ectonucleotide Pyrophosphatase/Phosphodiesterase-1 (ENPP1) and stimulator for interferon genes (STING) modulators as cancer immunotherapeutics” (Stingray Therapeutics, Inc., priority 2018, dated 2021).

Legend:
[1] = molecular target: T1, ENPP1 protein (Homo sapiens (Human), UniProt P22413); assay: ENPP1 Inhibition Assay (thymidine 5′-monophosphate p-nitrophenol ester substrate); assay type: biochemical
T1 sequence (P22413 whole entry, looked up, change not shown): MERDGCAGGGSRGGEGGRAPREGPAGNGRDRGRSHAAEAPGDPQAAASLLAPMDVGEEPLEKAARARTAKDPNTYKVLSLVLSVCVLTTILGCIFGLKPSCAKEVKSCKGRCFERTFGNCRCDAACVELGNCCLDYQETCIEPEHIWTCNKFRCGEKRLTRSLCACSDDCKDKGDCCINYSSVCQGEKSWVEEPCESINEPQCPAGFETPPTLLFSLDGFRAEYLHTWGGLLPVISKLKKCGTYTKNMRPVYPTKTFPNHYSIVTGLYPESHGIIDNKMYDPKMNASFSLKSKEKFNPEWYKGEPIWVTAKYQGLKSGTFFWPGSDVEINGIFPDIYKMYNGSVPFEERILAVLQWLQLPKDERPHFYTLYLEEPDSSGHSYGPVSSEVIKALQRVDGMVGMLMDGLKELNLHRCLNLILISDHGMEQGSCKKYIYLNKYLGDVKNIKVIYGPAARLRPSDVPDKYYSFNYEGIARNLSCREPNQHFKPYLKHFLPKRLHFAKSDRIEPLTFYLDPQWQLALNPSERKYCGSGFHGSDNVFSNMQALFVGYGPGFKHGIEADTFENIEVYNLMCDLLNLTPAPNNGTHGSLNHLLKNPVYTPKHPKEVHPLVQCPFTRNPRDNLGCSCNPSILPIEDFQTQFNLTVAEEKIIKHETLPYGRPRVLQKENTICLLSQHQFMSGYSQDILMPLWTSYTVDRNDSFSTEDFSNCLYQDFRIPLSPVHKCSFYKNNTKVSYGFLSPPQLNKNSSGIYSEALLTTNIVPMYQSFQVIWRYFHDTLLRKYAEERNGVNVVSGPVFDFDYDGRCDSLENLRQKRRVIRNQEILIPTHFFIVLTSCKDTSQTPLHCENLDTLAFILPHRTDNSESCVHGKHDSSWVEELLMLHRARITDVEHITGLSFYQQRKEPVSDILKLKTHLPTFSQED
Procedure: Assay Buffer: 1 mM CaCl2, 0.2 mM ZnCl2, 50 mM Tris, pH 9.0. Substrate: 8 mM Thymidine 5′-monophosphate p-nitrophenol ester sodium salt (Sigma Cat #T4510). Enzyme: 5 ng/L Recombinant Human ENPP-1 Protein (R&D Cat #6136-EN-010) in DMSO in 96-well clear assay plates
(§1) An eight point serial dilution of drugs was prepared in 10× in assay buffer with the final assay concentrations starting at 10 μM, 3 μM, 1 μM, 0.3 μM . . . 0 μM. A dilution of DMSO was included as a control. The assay plate was set up as follows with each well in duplicate: 81 μL assay buffer+10 μL ENPP1 inhibitor or DMSO+5 μL Substrate+4 μL Enzyme. Both the enzyme and substrate were added to opposite sides of the well to ensure that there was no interaction until all wells had both components. The plate was then centrifuged gently for 10 seconds, followed by an incubation at 37° C. for 45 minutes. The reaction was quantified by measuring absorbance at 405 nm using the Envision.
(§2) IC50 values are determined using GraphPad Prism 5 software. The data were entered as an X-Y plot into the software as percent inhibition for each concentration of the drug. The concentration values of the drug were log transformed and the nonlinear regression was carried out using the “sigmoidal dose-response (variable slope)” option within the GraphPad software to model the data and calculate IC50 values. The IC50 values reported are the concentration of drug at which 50% inhibition was reached.

[2] = molecular target: Recombinant Human ENPP-2/Autotaxin Protein (Homo sapiens (Human), UniProt Q13822); assay: ENPP2 Inhibition Assay; assay type: biochemical
Procedure: Assay Buffer: 10 mM CaCl2, 5 mM MgCl2, 50 mM Tris, 0.02% Brij-35, pH 8.5. Substrate: 2 mM Bis(p-Nitrophenyl) Phosphate Sodium Salt (Sigma Cat # N3002). Enzyme: 0.2 ng/μL Recombinant Human ENPP-2/Autotaxin Protein (R&D Cat #5255-EN), PF-3080 in DMSO in 96-well clear assay plates
as §1, with “15” for “81”, “DMSO+50” for “DMSO+5”, “Substrate+25” for “Substrate+4”
as §2

[3] = molecular target: T1, ENPP1 protein; assay: ENPP1 Thermal Shift Assay (Example 1); assay type: binding
Procedure: Assay Buffer (1 mM CaCl2, 0.2 mM ZnCl2, 50 mM Tris, pH 9.0) 5000×SYPRO Orange (ThermoFisher cat #S6651) 384-well PCR Plates
Each drug was prepared as a 10× solution in the assay buffer and SYPRO Orange was diluted to 10× concentration in water. Wells were set up in duplicate in a 384-well PCR plate as follows: 14 μL assay buffer, 2 μL ENPP1 Inhibitor or DMSO, 2 μL (0.5 μg) ENPP1 protein. Each well was mixed and incubated on ice for 5 minutes. Post incubation, 2 μL of SYPRO Orange was mixed into each well and followed by a gentle centrifugation. The protein melt reaction was run using ViiA7 software with temperatures beginning at 25° C. and increasing by 0.05° C./s to the maximum temperature of 99° C.
In a 384-well plate, 1.0 μg of ENPP1 protein incubated with 100 μM of the corresponding drug for 5 minutes. Each well exposed to increasing temperatures to determine an unfolding temperature of the protein.

[4] = system: Saos-2 Cells; assay: ENPP1 Mineralization Assay; assay type: cell-based; conditions: FIG. 4, normalized against DMSO control
Procedure: Saos-2 Cells (ATCC CAT #HTB-85). Culture Medium. 24-well Tissue Culture Plate. Ascorbic Acid, 5 mg/mL (100×). β-Glycerophosphate, 1M (100×). Phosphate Buffered Saline. Alizarin Red, 40 mM pH 4.2. 70% Ethanol. Dye Extraction Reagent, 10% Methanol+10% Acetic Acid
Saos-2 cells were plated at a density of 1.5×10^6 cells/well and allowed to grow to 100% confluency over the following 1-2 days. Once completely confluent, the media was replaced with fresh media supplemented with 1× ascorbic acid, 1× β-glycerophosphate, and varying concentrations of ENPP1 inhibitor (if applicable). The addition of the mineralization components was considered Day 1. On Day 3, the media was gently aspirated with no wash followed by the addition of fresh media, mineralization components, and ENPP1 inhibitor (if applicable). On day 5, the media was gently aspirated and the cells were washed twice with PBS. The cells were then fixed with ice cold 70% ethanol for 1 hour at 4° C. Cells were washed once with PBS and stained with Alizarin Red for 30 minutes at room temperature with gentle rotation. Stained cells were washed three times with water for 10 minutes at room temperature with gentle rotation. After imaging cells, dye extraction reagent was added to each well and incubated for 30 minutes at room temperature. Alizarin red was quantified by measuring absorbance at a wavelength of 405 nm using the Envision.
FIG. 9 depicts a picture of results of a similar SAOS-2 mineralization assay. SAOS-2 cell were cultured in the presence and absence of ENPP1 inhibitor (compound 78, 107-02 or 108) and exposed to mineralization components for 3 days.

[5] = system: B16F10 tumor; assay: Anti-tumor efficacy in B16F10 (melanoma) syngeneic model; assay type: in vivo, C57BL/6 mice
Source text: Animals: Female C57BL/6 (4-6 week's age from Taconic).
The B16F10 cells were propagated in DMEM cell culture medium containing 10% Fetal Bovine Serum. Cells were harvested in logarithmic growth phase and implanted subcutaneously ([…]) in the lower abdomen of mice. Tumor growth was monitored daily and after the tumors had reached 80 to 100 mm3, mice were randomized into groups consisting of 8 animals per group. Animals were euthanized when tumors reached around 2000 mm^3 or treatment regime completed or 20% of body weight loss, or developed ulceration and necrosis. Upon termination, tumor samples and blood were collected and analyzed for biomarkers.

[6] = system: CT26 tumor; assay: CT26 tumor growth inhibition study; assay type: in vivo; conditions: 30 mg P.O. QD, FIG. 14
[7] = system: MDA-MB-468; assay: Chou-Talalay Synergy Study with Olaparib, MDA-MB-468; assay type: cell-based; conditions: MDA-MB-468, 72 hours
Procedure: Cell Lines: MDA-MB-468 and UWB289.1 (ATCC). Cell Titer Glo (Promega cat #: G7572). 96-well TC treated, white assay plates
Cells were cultured according to ATCC tissue culture recommendations. Cells were plated in a 96-well tissue culture plate at a density of 1500 cells/well and allowed to settle overnight. The following day, both drugs were prepared at 10× concentration in the following ratios (Compound 22:Olaparib): 1:1, 10:1, and 1:10. The drugs were serially diluted to create an 8-point dose curve and 10 μL of each drug was added to the cells for a total volume of 100 μL/well. Plates were placed in a tissue culture incubator for 72 hours. Following incubation, each plate was treated with Cell Titer Glo according to vendor recommendation and luminescence was measured with the Envision Plate Reader. Data was analyzed using CalcuSyn software according to the methods described in Chou, Drug combination studies and their synergy quantification using the Chou-Talalay method, Cancer Res. 2010 Jan. 15; 70(2):440-6.
A Combination index (CI) value greater than 1 indicates […], equal to 1 indicates additive and less than 1 indicates synergy.

COc1ccc(NC(=O)CSc2nc3cc(Cl)ncc3[nH]2)cc1O [Compound 21, 2-((6-chloro-3H-imidazo[4,5-c]pyridin-2-yl)thio)-N-(3-hydroxy-4-methoxyphenyl) acetamide]
inhibiting the activity of ENPP1 ([1]; FIG. 1): effective
IC50 ([1]; Table 1, FIG. 1, read-out: IC50): 86.8 nM
selective at inhibiting ENPP1 but not ENPP2 [2]: selective
inhibiting the activity of ENPP2 ([2]; FIGS. 2A and 2B): ineffective
increasing the stability of recombinant ENPP1 protein ([3]; FIG. 3): effective
Tm (midpoint of the protein unfolding transition) of ENPP1 ([3]; FIG. 3, ENPP1 alone 64.2° C.): 67.84 °C
inhibiting ENPP1 ability to produce mineralized nodules [4]: effective

COc1cc(NC(=O)CSc2nc3cc(Cl)ncc3[nH]2)ccc1O [Compound 22, 2-((6-chloro-3H-imidazo[4,5-c]pyridin-2-yl)thio)-N-(4-hydroxy-3-methoxyphenyl) acetamide]
Tm (° C.) ([3]; Table 2, FIG. 7, 100 μM drug, 1.0 μg ENPP1, NT 60.05): 61.37 °C
ΔTm at 100 µM ([3]; Table 2, FIG. 7, 100 μM drug, 1.0 μg ENPP1, read-out: ΔTm (° C.)): 1.32 °C
B16F10 tumor growth inhibition ([5]; 30 mg/kg dose (FIG. 6A / FIG. 13A)): 28%
B16F10 tumor growth inhibition ([5]; FIG. 6B / FIG. 13B, dose and route not stated): 27%
CT26 tumor growth inhibition [6]: 39%

O=C(c1cc(Cc2n[nH]c(=O)c3ccccc23)ccc1F)N1CCN(C(=O)C2CC2)CC1 [Olaparib]
ED50 Drug Concentration Olaparib [7]: 185065 nM
